Reference: ChEMBL document CHEMBL1165986, “Xestosaprols from the Indonesian marine sponge Xestospongia sp” (J Nat Prod, 2010)
Blank lines part the entries; values can stand above or below the compound they belong to.

Biological target: Beta-secretase 1 (Homo sapiens, UniProt P56817)
Assay: Inhibition of BACE1 mediated cleavage of amyloid precursor protein by chemiluminescence assay

Sequence of Beta-secretase 1 (P56817 whole entry): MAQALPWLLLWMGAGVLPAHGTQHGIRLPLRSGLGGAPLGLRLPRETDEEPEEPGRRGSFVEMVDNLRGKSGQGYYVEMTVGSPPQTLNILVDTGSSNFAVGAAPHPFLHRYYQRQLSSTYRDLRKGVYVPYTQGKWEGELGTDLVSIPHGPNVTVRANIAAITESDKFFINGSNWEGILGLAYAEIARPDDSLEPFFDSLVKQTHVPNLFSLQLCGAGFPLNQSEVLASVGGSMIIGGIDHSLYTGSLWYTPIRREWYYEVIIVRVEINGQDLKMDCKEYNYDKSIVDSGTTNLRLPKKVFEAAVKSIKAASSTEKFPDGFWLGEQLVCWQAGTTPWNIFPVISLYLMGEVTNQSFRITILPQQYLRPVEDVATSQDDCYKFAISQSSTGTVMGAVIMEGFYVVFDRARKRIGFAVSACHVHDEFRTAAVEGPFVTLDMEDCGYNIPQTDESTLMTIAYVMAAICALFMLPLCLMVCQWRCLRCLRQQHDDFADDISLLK

SMILES: C[C@@]12CC[C@H](O)[C@@H]3COC(=C31)C(=O)c1cc3c(OCCO)cccc3cc12 [XESTOSAPROL F]
IC50: 135 µM
inhibition: Dose-dependent effect

SMILES: C[C@@]12CC[C@H](O)[C@@H]3COC(=C31)C(=O)c1cc3c(O)cccc3cc12 [XESTOSAPROL G]
IC50: 155 µM
inhibition: Dose-dependent effect

SMILES: COc1cccc2cc3c(cc12)[C@]1(C)CC[C@H](O)[C@@H]2COC(=C21)C3=O [XESTOSAPROL J]
IC50: 90 µM
inhibition: Dose-dependent effect

SMILES: C[C@@]12CC[C@@H](O)[C@@H]3COC(=C31)C(=O)c1cc3ccccc3cc12 [XESTOSAPROL I]
IC50: 163 µM
inhibition: Dose-dependent effect

SMILES: C[C@@]12CC[C@@H](O)[C@@H]3COC(=C31)C(=O)c1cc3c(OCCO)cccc3cc12 [XESTOSAPROL H]
IC50: 82 µM
inhibition: Dose-dependent effect

Continued, values first:

IC50: 104 µM
inhibition: Dose-dependent effect
SMILES: C[C@@]12CCCc3coc(c31)C(=O)c1cc3ccccc3cc12 [XESTOSAPROL M]

IC50: 98 µM
inhibition: Dose-dependent effect
SMILES: C[C@@]12CC[C@H](O)[C@@H]3COC(=C31)C(=O)c1cc3ccccc3cc12 [XESTOSAPROL L]

IC50: 93 µM
inhibition: Dose-dependent effect
SMILES: C[C@@]12CC[C@H](O)[C@@H]3COC(=C31)C(=O)c1cc3cccc(O)c3cc12 [XESTOSAPROL K]
